From patent publication US20130205416A1 (priority 2010, published 2013)
“And” between values parts separate entries of the source, which are not always exact repeats. Equal entries are not always repeated. Square brackets hold non-standard residues; d marks the D form. Ends that are not written are not given here.

Tests used:
[1] = system: H1N1 viruses (A/WSN/33 and A/England/195/09); details: for IC50: viruses (A/WSN/33 and A/England/195/09)
A/WSN/33 H1N1 virus [2] = format: cell-based, Influenza A virus
[3] = system: H3N2 viruses (A/Udorn and A/Victoria/3/75); details: for IC50: viruses (A/Udorn and A/Victoria/3/75)
A/WSN/33 H1N1 virus [4] = format: cell-based, Influenza A virus; remark: listed apart in the source
A/WSN/33 influenza virus = system: A/WSN/33 influenza virus; parameters: species or system BALB/c mice; details: mouse
[5] = system: PR8/Viet H5N1 virus (A/Vietnam/1194/04); format: cell-based, Influenza A virus
[6] = system: PR8/Eng09 H1N1 virus (A/England/195/09); format: cell-based, Influenza A virus
[7] = mouse, in vivo
[8] = system: PR8/Vic H3N2 virus (A/Victoria/3/75); format: cell-based, Influenza A virus
[9] = system: Semliki Forest virus (SFV); format: cell-based
[10] = system: human parainfluenza virus; format: cell-based
[11] = target: recombinant Haemagglutinin (HA) (California 04/2009 H1N1 Influenza A) (Influenza A virus, UniProt C3W5S1); format: binding
Chain of recombinant Haemagglutinin (HA) (California 04/2009 H1N1 Influenza A) (C3W5S1 entry or part of it, added parts left off): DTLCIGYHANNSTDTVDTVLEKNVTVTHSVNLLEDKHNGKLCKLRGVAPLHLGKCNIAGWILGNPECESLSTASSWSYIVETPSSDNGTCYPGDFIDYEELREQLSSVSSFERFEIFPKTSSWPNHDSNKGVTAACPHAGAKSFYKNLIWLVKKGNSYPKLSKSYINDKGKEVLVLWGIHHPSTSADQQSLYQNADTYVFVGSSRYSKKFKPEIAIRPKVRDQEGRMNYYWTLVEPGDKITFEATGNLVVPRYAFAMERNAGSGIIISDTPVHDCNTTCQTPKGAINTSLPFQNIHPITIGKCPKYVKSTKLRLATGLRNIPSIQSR

[12] = system: attachment of A/WSN/33 (H1N1) virus to MDCK cells; format: cell-based, Influenza A virus

Substance: FFVIFYRRKK [FP9, FFVIFYRRKK]
- inhibition of H1N1 infection [1]: very effective
- IC50 [1]: 1500 nM
- anti-viral activity (A/WSN/33 H1N1 virus [2]): substantial anti-viral activity
- knockdown of plaque formation (A/WSN/33 H1N1 virus [2]): 94%
- inhibition of H3N2 infection [3]: to a lesser extent

Substance: FP1-D: FP1 prepared with D-amino acids (SEQ ID NO 20) ([dW][dL][dV][dF][dF][dV][dI][dF][dY][dF][dF][dR])
- inhibition of H1N1 virus infection [1]: inhibit
- inhibition of H3N2 virus infection [3]: inhibit
- reduction in virus yield (A/WSN/33 H1N1 virus [4]): 85% and 68%

Substance: IVWFYLFRFFVF [FP10, IVWFYLFRFFVF]
- inhibition of lung viral titres in vivo (A/WSN/33 influenza virus): values similar to the control groups
- IC50 [1]: < 1.48 nM
- IC50 [3]: 72 nM

Substance: PEG300-RRKKWLVFFVIFYFFR [FP4-PEG]
- reduction in virus yield (A/WSN/33 H1N1 virus [4]): 68%
- virus yield (A/WSN/33 H1N1 virus [4]): No virus was detected

Substance: RRKK-IFYFFR [FP7]
- inhibition of H1N1 infection [1]: failed to inhibit
- inhibition of H3N2 infection [3]: failed to inhibit

Substance: RRKKWLVFFVIYFFR [FP4, RRKKWLVFFVIYFFR]
- agglutination end point (human RBCs): 0.78 µg/mL
- knockdown [5]: complete knockdown
- knockdown [6]: 90%
- inhibition of lung viral titres in vivo (A/WSN/33 influenza virus): effective
- clinical indications (A/WSN/33 influenza virus; in vivo): no clinical indications
- survival of mice (A/WSN/33 influenza virus; in vivo): 100%
- immunogenicity (serum IgG by ELISA) [7]: neither FP2 nor FP4 peptides were immunogenic
- knockdown [8]: 97%
- IC50 [1]: 66 to 100 nM
- agglutination end point (horse RBCs): 6.25 µg/mL
- knockdown of plaque formation (A/WSN/33 H1N1 virus [2]): 100%
- reduction in virus yield (A/WSN/33 H1N1 virus [4]): 99% and 50%

Substance: WLVFFVIAYFAR [FP2, WLVFFVIAYFAR]
- IC50 [1]: 1.6 nM
- IC50 [3]: 1.6 nM

Substance: WLVFFVIFYFFR [FP1]
- antiviral activity in vivo (body weight, lung virus titre) (A/WSN/33 influenza virus): potent antiviral activity
- antiviral effects [9]: no antiviral effects
- knockdown of plaque formation (A/WSN/33 H1N1 virus [2]): 94%
- antiviral effects [10]: no antiviral effects

Substance: WLVFFVIFYFFRRRKK [FP3, WLVFFVIFYFFRRRKK]
- agglutination end point (human RBCs): 0.78 µg/mL
- binding to HA [11]: can bind Influenza A HA
- IC50 [1]: 66 to 100 nM
- agglutination end point (horse RBCs): 6.25 µg/mL
- knockdown of plaque formation (A/WSN/33 H1N1 virus [2]): 100%
- inhibition of viral attachment [12]: completely inhibited
- inhibition of H3N2 infection [3]: only weakly inhibit
- IC50 [3]: 16000 nM

Substance: WLVFFVRRKK [FP8]
- anti-viral activity (A/WSN/33 H1N1 virus [2]): substantial anti-viral activity
- knockdown of plaque formation (A/WSN/33 H1N1 virus [2]): 94%
